According to ChEMBL document CHEMBL1201862, “PubChem BioAssay data set” (2004):
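Step 1: Grow cells in 96-well plates. Step 2: Expose to compound for 48 hours at 5 concentrations. Step 3: Interpolate endpoints linearly; if unreached, use highest concentration. GI50: concentration for 50% inhibition of growth.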 Active and inactive are the calls of the source. Cut-off read from the data, not from the text of the source: active = GI50 up to about 1.1 µM and inactive = higher.

Assays:
Assay in all cases: DTP human tumour cell line panel, 48 h
786-0 = tested on: 786-0
A498 = tested on: A498
A549 = tested on: A549
ACHN = tested on: ACHN
BT-549 = tested on: BT-549
CAKI-1 = tested on: CAKI-1
COLO 205 = tested on: COLO 205
DU-145 = tested on: DU-145
EKVX = tested on: EKVX
HCC 2998 = tested on: HCC 2998
HCT-116 = tested on: HCT-116
HCT-15 = tested on: HCT-15
HOP-62 = tested on: HOP-62
HOP-92 = tested on: HOP-92
HT-29 = tested on: HT-29
Hs-578T = tested on: Hs-578T
IGROV-1 = tested on: IGROV-1
KM12 = tested on: KM12
LOX IMVI = tested on: LOX IMVI
M14 = tested on: M14
MCF7 = tested on: MCF7
MDA-MB-231 = tested on: MDA-MB-231
MDA-MB-435 = tested on: MDA-MB-435
MDA-N = tested on: MDA-N
MOLT-4 = tested on: MOLT-4
Malme-3M = tested on: Malme-3M
NCI-H226 = tested on: NCI-H226
NCI-H23 = tested on: NCI-H23
NCI-H460 = tested on: NCI-H460
NCI-H522 = tested on: NCI-H522
NCI/ADR-RES = tested on: NCI/ADR-RES
OVCAR-3 = tested on: OVCAR-3
OVCAR-4 = tested on: OVCAR-4
OVCAR-5 = tested on: OVCAR-5
OVCAR-8 = tested on: OVCAR-8
PC-3 = tested on: PC-3
RPMI-8226 = tested on: RPMI-8226
RXF 393 = tested on: RXF 393
SF-268 = tested on: SF-268
SF-295 = tested on: SF-295
SF-539 = tested on: SF-539
SK-MEL-28 = tested on: SK-MEL-28
SK-MEL-2 = tested on: SK-MEL-2
SK-MEL-5 = tested on: SK-MEL-5
SK-OV-3 = tested on: SK-OV-3
SN12C = tested on: SN12C
SNB-19 = tested on: SNB-19
SNB-75 = tested on: SNB-75
SR = tested on: SR
SW-620 = tested on: SW-620
T47D = tested on: T47D
TK-10 = tested on: TK-10
U-251 = tested on: U-251
UACC-257 = tested on: UACC-257
UACC-62 = tested on: UACC-62
UO-31 = tested on: UO-31
CCRF-CEM = tested on: CCRF-CEM
HL-60 = tested on: HL-60
K562 = tested on: K562

Measured: GI50

O=C(O)c1ccccc1-c1ccccc1C(=O)Nc1ccc2c(c1)Cc1cc(F)ccc1-2
17.6 µM: HCT-15
inactive: 786-0 24.3 µM | A498 19 µM | A549 24.5 µM | ACHN 21.2 µM | BT-549 18.9 µM | CAKI-1 30.4 µM | COLO 205 17.4 µM | DU-145 33.6 µM | EKVX 27.1 µM | HCC 2998 16.3 µM | HCT-116 16 µM | HOP-62 24.9 µM | HOP-92 37.9 µM | HT-29 22.8 µM | Hs-578T 54.8 µM | IGROV-1 34 µM | KM12 24.5 µM | LOX IMVI 19.7 µM | M14 19.7 µM | MCF7 27.5 µM | MDA-MB-231 26.3 µM | MDA-MB-435 32.5 µM | MDA-N 23.6 µM | MOLT-4 26.7 µM | Malme-3M 33.7 µM | NCI-H226 30.5 µM | NCI-H23 17.9 µM | NCI-H460 26.6 µM | NCI-H522 24.3 µM | NCI/ADR-RES 36.5 µM | OVCAR-3 17.7 µM | OVCAR-4 25.9 µM | OVCAR-5 30.8 µM | OVCAR-8 35.2 µM | PC-3 26.4 µM | RPMI-8226 31.5 µM | RXF 393 32.2 µM | SF-268 43.6 µM | SF-295 26.4 µM | SF-539 29.5 µM | SK-MEL-28 37.8 µM | SK-MEL-2 18.8 µM | SK-MEL-5 19.5 µM | SK-OV-3 31.3 µM | SN12C 12.3 µM | SNB-19 36.4 µM | SNB-75 26.6 µM | SR 18 µM | SW-620 33.7 µM | T47D 22.1 µM | TK-10 28.9 µM | U-251 21.3 µM | UACC-257 22.1 µM | UACC-62 17.7 µM | UO-31 27.8 µM

Cc1ccc(S(=O)(=O)NN=C2CCCCCCCCCCC2)cc1
> 100 µM: HCT-15
inactive: 786-0 > 100 µM | A498 > 100 µM | A549 > 100 µM | ACHN > 100 µM | BT-549 > 100 µM | CAKI-1 > 100 µM | CCRF-CEM > 100 µM | COLO 205 > 100 µM | DU-145 > 100 µM | EKVX > 100 µM | HCC 2998 > 100 µM | HCT-116 > 100 µM | HL-60 > 100 µM | HOP-62 > 100 µM | HOP-92 > 100 µM | HT-29 > 100 µM | Hs-578T 35.7 µM | IGROV-1 > 100 µM | K562 > 100 µM | KM12 > 100 µM | LOX IMVI > 100 µM | M14 > 100 µM | MCF7 > 100 µM | MDA-MB-231 > 100 µM | MDA-MB-435 > 100 µM | MDA-N > 100 µM | MOLT-4 > 100 µM | Malme-3M > 100 µM | NCI-H226 38.4 µM | NCI-H23 > 100 µM | NCI-H460 > 100 µM | NCI-H522 > 100 µM | NCI/ADR-RES > 100 µM | OVCAR-3 > 100 µM | OVCAR-4 > 100 µM | OVCAR-5 > 100 µM | OVCAR-8 > 100 µM | PC-3 > 100 µM | RPMI-8226 > 100 µM | RXF 393 58.1 µM | SF-268 > 100 µM | SF-295 > 100 µM | SF-539 > 100 µM | SK-MEL-28 > 100 µM | SK-MEL-2 > 100 µM | SK-MEL-5 > 100 µM | SK-OV-3 > 100 µM | SN12C > 100 µM | SNB-19 > 100 µM | SR > 100 µM | SW-620 > 100 µM | T47D > 100 µM | TK-10 > 100 µM | U-251 > 100 µM | UACC-257 > 100 µM | UACC-62 > 100 µM | UO-31 > 100 µM
